In US20230295119A1, “SUBSTITUTED PYRIDINES FOR THE TREATMENT OF INFLAMMATORY DISEASES” (GOSSAMER BIO SERVICES, INC., priority 2020, published 2023):

Columns and labels:
[1] = molecular target: TYK2 JH2 domain (Homo sapiens (Human), UniProt P29597); test: TYK2 JH2 NanoBRET assay; type: binding; conditions: Table 20, read-out: TYK2 IC50
In short: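 HEK293T cells transiently expressing NanoLuc-TYK2 JH2 fusion, incubated 2 h with compound and NanoBRET K10 tracer (0.5 µM final). Target engagement read as acceptor/donor BRET ratio after Nano-Glo substrate plus extracellular NanoLuc inhibitor.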

[2] = molecular target: human JAK1 (Homo sapiens (Human), UniProt P23458); test: JAK1 TR-FRET kinase assay; type: biochemical; conditions: TR-FRET, JAK1 2.5 nM
Sequence of human JAK1 (P23458 whole entry): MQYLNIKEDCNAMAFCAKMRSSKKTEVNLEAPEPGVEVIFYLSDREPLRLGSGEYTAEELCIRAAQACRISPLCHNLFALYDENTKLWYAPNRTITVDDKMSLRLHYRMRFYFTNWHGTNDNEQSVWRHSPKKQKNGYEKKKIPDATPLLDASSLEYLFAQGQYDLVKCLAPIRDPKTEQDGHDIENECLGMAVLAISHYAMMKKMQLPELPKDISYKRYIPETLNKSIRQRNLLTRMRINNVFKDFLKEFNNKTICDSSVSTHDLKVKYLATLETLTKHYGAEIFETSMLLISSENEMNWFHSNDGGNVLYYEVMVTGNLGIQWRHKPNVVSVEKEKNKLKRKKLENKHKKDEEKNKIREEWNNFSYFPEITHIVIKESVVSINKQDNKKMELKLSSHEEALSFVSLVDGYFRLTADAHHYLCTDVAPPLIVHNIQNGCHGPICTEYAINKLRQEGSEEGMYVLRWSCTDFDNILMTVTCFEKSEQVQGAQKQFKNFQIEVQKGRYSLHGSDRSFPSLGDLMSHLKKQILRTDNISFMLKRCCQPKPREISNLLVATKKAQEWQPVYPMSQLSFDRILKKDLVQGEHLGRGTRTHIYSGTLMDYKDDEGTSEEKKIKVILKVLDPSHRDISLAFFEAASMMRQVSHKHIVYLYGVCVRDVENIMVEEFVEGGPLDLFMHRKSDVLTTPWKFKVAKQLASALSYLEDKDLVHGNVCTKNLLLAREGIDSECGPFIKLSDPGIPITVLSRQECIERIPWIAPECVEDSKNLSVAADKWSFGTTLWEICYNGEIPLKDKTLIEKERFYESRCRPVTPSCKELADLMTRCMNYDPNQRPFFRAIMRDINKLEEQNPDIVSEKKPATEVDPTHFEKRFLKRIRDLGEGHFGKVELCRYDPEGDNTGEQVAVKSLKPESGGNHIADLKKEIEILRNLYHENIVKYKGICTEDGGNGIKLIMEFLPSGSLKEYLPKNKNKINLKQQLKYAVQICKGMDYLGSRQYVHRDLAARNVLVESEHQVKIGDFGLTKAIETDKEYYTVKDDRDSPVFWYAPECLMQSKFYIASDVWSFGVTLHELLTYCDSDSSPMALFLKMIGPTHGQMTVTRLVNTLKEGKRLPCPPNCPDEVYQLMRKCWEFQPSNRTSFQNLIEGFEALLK

[3] = molecular target: human JAK2 (Homo sapiens (Human), UniProt O60674); test: JAK2 TR-FRET kinase assay; type: biochemical; conditions: JAK2 0.025 nM
Sequence of human JAK2 (O60674 whole entry): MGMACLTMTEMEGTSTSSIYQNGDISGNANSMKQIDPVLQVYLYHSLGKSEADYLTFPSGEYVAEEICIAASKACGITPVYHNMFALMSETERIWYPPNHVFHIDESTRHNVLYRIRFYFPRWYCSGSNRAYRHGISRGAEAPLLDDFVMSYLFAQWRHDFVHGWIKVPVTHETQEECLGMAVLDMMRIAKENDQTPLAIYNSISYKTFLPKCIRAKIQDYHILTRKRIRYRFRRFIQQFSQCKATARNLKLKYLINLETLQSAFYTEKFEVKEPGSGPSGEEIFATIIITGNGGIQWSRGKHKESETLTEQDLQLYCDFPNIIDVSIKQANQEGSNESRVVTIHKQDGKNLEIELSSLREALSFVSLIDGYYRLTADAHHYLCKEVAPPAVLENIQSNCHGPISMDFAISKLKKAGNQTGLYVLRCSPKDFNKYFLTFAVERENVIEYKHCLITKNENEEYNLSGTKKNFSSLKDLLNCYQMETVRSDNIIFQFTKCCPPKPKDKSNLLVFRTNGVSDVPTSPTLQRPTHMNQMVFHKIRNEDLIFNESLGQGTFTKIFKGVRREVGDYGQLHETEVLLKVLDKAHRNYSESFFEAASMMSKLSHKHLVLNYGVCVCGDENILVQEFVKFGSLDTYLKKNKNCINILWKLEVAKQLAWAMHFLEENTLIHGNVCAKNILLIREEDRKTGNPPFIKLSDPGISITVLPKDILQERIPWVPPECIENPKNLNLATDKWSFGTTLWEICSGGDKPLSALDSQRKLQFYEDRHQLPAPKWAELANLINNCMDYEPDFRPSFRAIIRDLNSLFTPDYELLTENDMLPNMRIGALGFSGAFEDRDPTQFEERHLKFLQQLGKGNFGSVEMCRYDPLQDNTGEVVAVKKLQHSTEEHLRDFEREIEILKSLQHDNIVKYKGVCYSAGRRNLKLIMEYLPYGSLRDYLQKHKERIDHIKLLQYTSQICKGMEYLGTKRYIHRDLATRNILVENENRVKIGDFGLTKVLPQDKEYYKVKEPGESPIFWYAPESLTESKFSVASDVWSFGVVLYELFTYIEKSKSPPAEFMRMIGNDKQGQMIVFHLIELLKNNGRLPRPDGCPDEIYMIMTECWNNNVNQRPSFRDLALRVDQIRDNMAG

[4] = molecular target: human JAK3 (Homo sapiens (Human), UniProt P52333); test: JAK3 TR-FRET kinase assay; type: biochemical; conditions: JAK3 0.0125 nM
Sequence of human JAK3 (P52333 whole entry): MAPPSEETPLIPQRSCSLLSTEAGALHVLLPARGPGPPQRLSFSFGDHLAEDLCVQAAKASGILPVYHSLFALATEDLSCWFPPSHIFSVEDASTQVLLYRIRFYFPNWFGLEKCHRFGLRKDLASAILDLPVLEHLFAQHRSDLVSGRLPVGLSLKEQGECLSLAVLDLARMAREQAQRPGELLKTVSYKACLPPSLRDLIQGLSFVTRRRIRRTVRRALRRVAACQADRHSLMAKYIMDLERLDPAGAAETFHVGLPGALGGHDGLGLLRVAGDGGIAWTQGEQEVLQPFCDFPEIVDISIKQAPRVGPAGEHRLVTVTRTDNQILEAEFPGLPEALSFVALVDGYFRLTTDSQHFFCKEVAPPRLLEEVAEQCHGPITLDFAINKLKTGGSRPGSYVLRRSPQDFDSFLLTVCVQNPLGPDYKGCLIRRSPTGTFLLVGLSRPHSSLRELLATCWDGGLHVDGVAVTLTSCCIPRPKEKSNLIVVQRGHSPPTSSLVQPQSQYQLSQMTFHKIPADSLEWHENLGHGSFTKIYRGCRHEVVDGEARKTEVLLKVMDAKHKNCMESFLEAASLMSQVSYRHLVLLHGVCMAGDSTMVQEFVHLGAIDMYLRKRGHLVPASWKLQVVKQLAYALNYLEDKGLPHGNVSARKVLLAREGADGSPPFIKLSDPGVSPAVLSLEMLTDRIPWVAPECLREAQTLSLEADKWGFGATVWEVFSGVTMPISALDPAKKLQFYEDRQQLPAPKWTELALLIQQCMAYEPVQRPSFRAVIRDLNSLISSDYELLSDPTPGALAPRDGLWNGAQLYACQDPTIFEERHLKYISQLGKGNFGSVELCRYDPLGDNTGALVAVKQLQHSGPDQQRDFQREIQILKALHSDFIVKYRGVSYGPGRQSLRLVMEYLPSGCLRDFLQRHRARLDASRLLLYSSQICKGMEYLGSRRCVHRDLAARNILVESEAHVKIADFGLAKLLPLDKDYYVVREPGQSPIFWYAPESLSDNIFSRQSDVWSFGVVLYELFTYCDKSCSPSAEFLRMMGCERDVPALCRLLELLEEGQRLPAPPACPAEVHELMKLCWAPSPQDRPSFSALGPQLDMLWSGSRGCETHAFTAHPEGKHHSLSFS

Sequence of TYK2 JH2 domain (P29597 589-875): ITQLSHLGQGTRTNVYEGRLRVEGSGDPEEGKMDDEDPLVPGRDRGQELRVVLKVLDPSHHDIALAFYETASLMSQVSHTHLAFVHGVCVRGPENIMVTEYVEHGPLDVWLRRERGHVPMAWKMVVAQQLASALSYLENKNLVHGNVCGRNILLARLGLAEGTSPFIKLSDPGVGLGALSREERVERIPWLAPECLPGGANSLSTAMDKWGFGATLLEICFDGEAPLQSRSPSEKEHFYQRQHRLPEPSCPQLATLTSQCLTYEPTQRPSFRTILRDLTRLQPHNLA

CCC(=O)c1cnc(Nc2cnc(OCCCO)cn2)cc1Nc1cccc(-c2ncn(C)n2)c1OC [Compound 18Q]
IC50 [1]: 5 to 50 nM
IC50 [2]: ≥ 500 nM
IC50 [3]: ≥ 500 nM
IC50 [4]: ≥ 500 nM

CCC(=O)c1cnc(Nc2cnc(O[C@H]3CN(C)CC3(F)F)cn2)cc1Nc1cccc(-c2ncn(C)n2)c1OC [Compound 18RRR]
IC50 [1]: 5 to 50 nM
IC50 [2]: ≥ 500 nM
IC50 [3]: ≥ 500 nM
IC50 [4]: ≥ 500 nM

CCC(=O)c1cnc(Nc2cnc(OCCN3CC(C#N)C3)cn2)cc1Nc1cccc(-c2ncn(C)n2)c1OC [Compound 18RR]
IC50 [1]: 5 to 50 nM
IC50 [2]: ≥ 500 nM
IC50 [3]: ≥ 500 nM
IC50 [4]: ≥ 500 nM

CCC(=O)c1cnc(Nc2ccc(O[C@H]3COC[C@@H]3O)cn2)cc1Nc1cccc(-c2ncn(C)n2)c1OC [Compound 18R]
IC50 [1]: < 5 nM
IC50 [2]: ≥ 500 nM
IC50 [3]: ≥ 500 nM
IC50 [4]: 50 to 500 nM

CCC(=O)c1cnc(Nc2cnc(O[C@@H]3CCN(C)C[C@@H]3F)cn2)cc1Nc1cccc(-c2ncn(C)n2)c1OC [Compound 18SSS]
IC50 [1]: 5 to 50 nM
IC50 [2]: ≥ 500 nM
IC50 [3]: ≥ 500 nM
IC50 [4]: ≥ 500 nM

CCC(=O)c1cnc(Nc2cnc(O[C@@H]3CCNC3)cn2)cc1Nc1cccc(-c2ncn(C)n2)c1OC [Compound 18SS]
IC50 [1]: 5 to 50 nM
IC50 [2]: ≥ 500 nM
IC50 [3]: ≥ 500 nM
IC50 [4]: ≥ 500 nM

CCC(=O)c1cnc(Nc2ccc(O[C@H]3CN(C)C[C@@H]3O)cn2)cc1Nc1cccc(-c2ncn(C)n2)c1OC [Compound 18S]
IC50 [1]: 5 to 50 nM
IC50 [2]: ≥ 500 nM
IC50 [3]: ≥ 500 nM
IC50 [4]: 50 to 500 nM

CCC(=O)c1cnc(Nc2cnc(O[C@H]3CCN(C)C[C@@H]3F)cn2)cc1Nc1cccc(-c2ncn(C)n2)c1OC [Compound 18TTT]
IC50 [1]: 5 to 50 nM
IC50 [2]: ≥ 500 nM
IC50 [3]: ≥ 500 nM
IC50 [4]: ≥ 500 nM

CCC(=O)c1cnc(Nc2cnc(O[C@H]3CCN(C)C3)cn2)cc1Nc1cccc(-c2ncn(C)n2)c1OC [Compound 18TT]
IC50 [1]: < 5 nM
IC50 [2]: ≥ 500 nM
IC50 [3]: ≥ 500 nM
IC50 [4]: ≥ 500 nM

COc1c(Nc2cc(Nc3ccc(OCCN(C)C)cn3)ncc2C(=O)C2CC2)cccc1-c1ncn(C)n1 [Compound 18T]
IC50 [1]: 5 to 50 nM
IC50 [2]: ≥ 500 nM
IC50 [3]: ≥ 500 nM
IC50 [4]: ≥ 500 nM

CCC(=O)c1cnc(Nc2ccc(O[C@H]3CN(C)C[C@@H]3F)cn2)cc1Nc1cccc(-c2ncn(C)n2)c1OC [Compound 18UUU]
IC50 [1]: < 5 nM
IC50 [2]: ≥ 500 nM
IC50 [3]: ≥ 500 nM
IC50 [4]: ≥ 500 nM

CCC(=O)c1cnc(Nc2cnc(O[C@@H]3CCN(C)C3)cn2)cc1Nc1cccc(-c2ncn(C)n2)c1OC [Compound 18UU]
IC50 [1]: 5 to 50 nM
IC50 [2]: ≥ 500 nM
IC50 [3]: ≥ 500 nM
IC50 [4]: ≥ 500 nM

CCC(=O)c1cnc(Nc2ccc(OC3CN(C)C3)cn2)cc1Nc1cccc(-c2ncn(C)n2)c1OC [Compound 18U]
IC50 [1]: < 5 nM
IC50 [2]: ≥ 500 nM
IC50 [3]: ≥ 500 nM
IC50 [4]: ≥ 500 nM

CCC(=O)c1cnc(Nc2ccc(O[C@@H]3CCN(C)C3)cn2)cc1Nc1cccc(-c2ncc(F)cn2)c1OC [Compound 18VVV]
IC50 [1]: 5 to 50 nM
IC50 [2]: ≥ 500 nM
IC50 [3]: ≥ 500 nM
IC50 [4]: 50 to 500 nM

CCC(=O)c1cnc(Nc2cnc(OCCN3CCCC3)cn2)cc1Nc1cccc(-c2ncn(C)n2)c1OC [Compound 18VV]
IC50 [1]: < 5 nM
IC50 [2]: ≥ 500 nM
IC50 [3]: ≥ 500 nM
IC50 [4]: ≥ 500 nM

CCC(=O)c1cnc(Nc2ccc(O[C@@H]3CCN(C)C3)cn2)cc1Nc1cccc(-c2ncn(C)n2)c1OC [Compound 18V]
IC50 [1]: < 5 nM
IC50 [2]: ≥ 500 nM
IC50 [3]: ≥ 500 nM
IC50 [4]: 50 to 500 nM

CCC(=O)c1cnc(Nc2ccc(O[C@@H]3CCN(C)C3)cn2)cc1Nc1cc(F)cc(-c2ncn(C)n2)c1OC [Compound 18WWW]
IC50 [1]: < 5 nM
IC50 [2]: ≥ 500 nM
IC50 [3]: ≥ 500 nM
IC50 [4]: ≥ 500 nM

CCC(=O)c1cnc(Nc2cnc(OCCCN3CCCC3)cn2)cc1Nc1cccc(-c2ncn(C)n2)c1OC [Compound 18WW]
IC50 [1]: < 5 nM
IC50 [2]: ≥ 500 nM
IC50 [3]: ≥ 500 nM
IC50 [4]: ≥ 500 nM

CCC(=O)c1cnc(Nc2ccc(O[C@H]3CCN(C)C3)cn2)cc1Nc1cccc(-c2ncn(C)n2)c1OC [Compound 18W]
IC50 [1]: < 5 nM
IC50 [2]: ≥ 500 nM
IC50 [3]: ≥ 500 nM
IC50 [4]: ≥ 500 nM

CCC(=O)c1cnc(Nc2ncc(O[C@@H]3CCN(C)C3)cc2F)cc1Nc1cccc(-c2ncn(C)n2)c1OC [Compound 18XXX]
IC50 [1]: 5 to 50 nM
IC50 [2]: ≥ 500 nM
IC50 [3]: ≥ 500 nM
IC50 [4]: ≥ 500 nM

CCC(=O)c1cnc(Nc2cnc(OCCN3CC[C@H](F)C3)cn2)cc1Nc1cccc(-c2ncn(C)n2)c1OC [Compound 18XX]
IC50 [1]: 5 to 50 nM
IC50 [2]: ≥ 500 nM
IC50 [3]: ≥ 500 nM
IC50 [4]: ≥ 500 nM

[2H]C([2H])([2H])N1CC[C@@H](Oc2ccc(Nc3cc(Nc4cccc(-c5ncn(C)n5)c4OC)c(C(=O)CC)cn3)nc2)C1 [Compound 18X]
IC50 [1]: < 5 nM
IC50 [2]: ≥ 500 nM
IC50 [3]: ≥ 500 nM
IC50 [4]: 50 to 500 nM

CCC(=O)c1cnc(Nc2ccc(O[C@@H]3CCN(C)C3)c(C)n2)cc1Nc1cccc(-c2ncn(C)n2)c1OC [Compound 18YYY]
IC50 [1]: < 5 nM
IC50 [2]: ≥ 500 nM
IC50 [3]: ≥ 500 nM
IC50 [4]: 50 to 500 nM

CCC(=O)c1cnc(Nc2cnc(OCCN3CC[C@@H](F)C3)cn2)cc1Nc1cccc(-c2ncn(C)n2)c1OC [Compound 18YY]
IC50 [1]: 5 to 50 nM
IC50 [2]: ≥ 500 nM
IC50 [3]: ≥ 500 nM
IC50 [4]: ≥ 500 nM

CCC(=O)c1cnc(Nc2ccc(OC3CCN(C)CC3)cn2)cc1Nc1cccc(-c2ncn(C)n2)c1OC [Compound 18Y]
IC50 [1]: < 5 nM
IC50 [2]: ≥ 500 nM
IC50 [3]: 50 to 500 nM
IC50 [4]: 50 to 500 nM

CCC(=O)c1cnc(Nc2ccc(OC3COC3)c(C)n2)cc1Nc1cccc(-c2ncn(C)n2)c1OC [Compound 18ZZZ]
IC50 [1]: < 5 nM
IC50 [2]: ≥ 500 nM
IC50 [3]: 50 to 500 nM
IC50 [4]: 50 to 500 nM

CCC(=O)c1cnc(Nc2cnc(OCCN3CCC(F)(F)C3)cn2)cc1Nc1cccc(-c2ncn(C)n2)c1OC [Compound 18ZZ]
IC50 [1]: 5 to 50 nM
IC50 [2]: ≥ 500 nM
IC50 [3]: ≥ 500 nM
IC50 [4]: ≥ 500 nM

CCC(=O)c1cnc(Nc2ccc(OC3COC3)cn2)cc1Nc1cccc(-c2ncn(C)n2)c1OC [Compound 18Z]
IC50 [1]: < 5 nM
IC50 [2]: ≥ 500 nM
IC50 [3]: ≥ 500 nM
IC50 [4]: ≥ 500 nM

CCC(=O)c1cnc(Nc2cnc(C(F)(F)CNC)cn2)cc1Nc1cccc(-c2ncn(C)n2)c1OC [Compound 19B]
IC50 [1]: 50 to 500 nM
IC50 [2]: ≥ 500 nM
IC50 [3]: ≥ 500 nM
IC50 [4]: ≥ 500 nM

CCC(=O)c1cnc(Nc2cnc(C(F)(F)CN(C)C)cn2)cc1Nc1cccc(-c2ncn(C)n2)c1OC [Compound 19C]
IC50 [1]: 5 to 50 nM
IC50 [2]: ≥ 500 nM
IC50 [3]: ≥ 500 nM
IC50 [4]: ≥ 500 nM

CCC(=O)c1cnc(Nc2cnc(C(F)(F)CO)cn2)cc1Nc1cccc(-c2ncn(C)n2)c1OC [Compound 19D]
IC50 [1]: 5 to 50 nM
IC50 [2]: ≥ 500 nM
IC50 [3]: ≥ 500 nM
IC50 [4]: ≥ 500 nM

CCC(=O)c1cnc(Nc2cnc(C(F)(F)CN3CCCC3)cn2)cc1Nc1cccc(-c2ncn(C)n2)c1OC [Compound 19E]
IC50 [1]: 5 to 50 nM
IC50 [2]: ≥ 500 nM
IC50 [3]: ≥ 500 nM
IC50 [4]: ≥ 500 nM

CCC(=O)c1cnc(Nc2ccn(-c3ccccc3)c(=O)n2)cc1Nc1cccc(-c2ncn(C)n2)c1OC [Compound 20A, 4-((4-((2-methoxy-3-(1-methyl-1H-1,2,4-triazol-3-yl)phenyl)amino)-5-propionylpyridin-2-yl)amino)-1-phenylpyrimidin-2(1H)-one]
IC50 [1]: < 5 nM
IC50 [2]: ≥ 500 nM
IC50 [3]: ≥ 500 nM
IC50 [4]: ≥ 500 nM

CCC(=O)c1cnc(Nc2ccn([C@H]3C[C@@H](OC)C3)n2)cc1Nc1cccc(-c2ncn(C)n2)c1OC [Compound 21A, 1-(4-((2-methoxy-3-(1-methyl-1H-1,2,4-triazol-3-yl)phenyl)amino)-6-((1-(3-methoxycyclobutyl)-1H-pyrazol-3-yl)amino)pyridin-3-yl)propan-1-one]
IC50 [1]: 5 to 50 nM
IC50 [2]: ≥ 500 nM
IC50 [3]: ≥ 500 nM
IC50 [4]: ≥ 500 nM

CCC(=O)c1cnc(Nc2cc(OCCO)n(C)n2)cc1Nc1cccc(-c2ncn(C)n2)c1OC [Compound 21AA]
IC50 [1]: 5 to 50 nM
IC50 [2]: ≥ 500 nM
IC50 [3]: ≥ 500 nM
IC50 [4]: 50 to 500 nM

CCC(=O)c1cnc(Nc2ccn([C@H]3C[C@@H](OC(F)F)C3)n2)cc1Nc1cccc(-c2ncn(C)n2)c1OC [Compound 21BB]
IC50 [1]: < 5 nM
IC50 [2]: ≥ 500 nM
IC50 [3]: ≥ 500 nM
IC50 [4]: ≥ 500 nM

CCC(=O)c1cnc(Nc2ccn(CCOC)n2)cc1Nc1cccc(-c2ncn(C)n2)c1OC [Compound 21B]
IC50 [1]: 5 to 50 nM
IC50 [2]: ≥ 500 nM
IC50 [3]: ≥ 500 nM
IC50 [4]: ≥ 500 nM

CCO[C@H]1C[C@@H](n2ccc(Nc3cc(Nc4cccc(-c5ncn(C)n5)c4OC)c(C(=O)CC)cn3)n2)C1 [Compound 21CC]
IC50 [1]: 5 to 50 nM
IC50 [2]: ≥ 500 nM
IC50 [3]: ≥ 500 nM
IC50 [4]: ≥ 500 nM

CCC(=O)c1cnc(Nc2ccn(CCN3CCCC3)n2)cc1Nc1cccc(-c2ncn(C)n2)c1OC [Compound 21C]
IC50 [1]: 5 to 50 nM
IC50 [2]: ≥ 500 nM
IC50 [3]: ≥ 500 nM
IC50 [4]: ≥ 500 nM

CCC(=O)c1cnc(Nc2cc(C)n([C@H]3C[C@@H](O)C3)n2)cc1Nc1cccc(-c2ncn(C)n2)c1OC [Compound 21DD]
IC50 [1]: 5 to 50 nM
IC50 [2]: ≥ 500 nM
IC50 [3]: ≥ 500 nM
IC50 [4]: ≥ 500 nM

CCC(=O)c1cnc(Nc2ccn(S(=O)(=O)C3CC3)n2)cc1Nc1cccc(-c2ncn(C)n2)c1OC [Compound 21D]
IC50 [1]: 5 to 50 nM
IC50 [2]: ≥ 500 nM
IC50 [3]: ≥ 500 nM
IC50 [4]: ≥ 500 nM
